Patent US5593835A, “Methods and kits for RNA binding compounds” (President and Fellows of Harvard College, priority 1995, dated 1997)
Read-outs that look alike come from different tables or passages of the source.

Assays:
[1] = molecular target: clone W13 RNA (SEQ ID NO:1), tobramycin-selected RNA aptamer; experiment: Equilibrium dialysis binding to clone W13 RNA; settings: competition studies with 3H-acetyl tobramycin; read-out: dissociation constant
Description: One of these RNAs, clone W13 (SEQ ID NO:1) was chosen for quantitative studies to determine the specificity of its binding to RNA. […] The dissociation constant for tobramycin was determined to be 3 μM by competition studies with ^3 H-acetyl tobramycin. These values are close to those measured for tobramycin and ^3 H-acetyl tobramycin binding to ribosomal targets (LeGoffic et al. (1979) Eur. J. Biochem. 102: 73-81).
Equilibrium dialysis measurements were performed according to the procedure of Lorsch et al. (Biochem. (1994) 33: 973-982).

[2] = molecular target: X1 RNA (SEQ ID NO: 3 in Table 3; SEQ ID NO:2 in text); experiment: Fluorescence binding measurements, X1 RNA
Description: (§1) The binding of tobramycin to two cloned RNAs X1 (SEQ ID NO:2) and J6 (SEQ ID NO:5), representative of both classes of consensus sequences, was measured using the fluorescence techniques described in the exemplification.
(§2) Steady state fluorescence measurements were performed on a double beam fluorescence spectrometer (Perkin-Elmer Model 512, Norwalk, Conn.). The excitation wavelength was 341 nm. All measurements were done at 20° C. in 140 mM NaCl, 5 mM KCl, 1 mM CaCl2, 1 mM MgCl2, and 20 mM HEPES, pH 7.4. The KD of the PYT and the RNA aptamer was calculated by the curve fitting of the fluorescence intensity as a function of RNA concentration, using the following equation
(§3) Competition binding measurements of antibiotics with RNA and PYT were performed at constant concentrations of PYT and RNA by monitoring fluorescence intensity changes as a function of changing concentrations of the antibiotics (a standard fluorescence curve). The KD s for the antibiotics were calculated by the curve fitting of the fluorescence intensity of PYT as a function of antibiotic concentration, using the following equation: […]

[3] = molecular target: TAR region of HIV RNA; experiment: Fluorescence binding and competitive binding to TAR RNA; settings: competition, 100 nM RNA, 15 nM fluorescent tobramycin, 20° C., pH 7.4; read-out: Dissociation Constant (KD) TAR RNA
Description: (§4) In order to quantitatively determine whether fluorescently labelled tobramycin and other antibiotics bind directly to the RRE region and/or to other regions of the HIV RNA, and with what affinity, the RRE and TAR regions of HIV RNA were prepared and used in the method of the invention as target RNAs.
(§5) In other competitive binding studies, TAR or RRE RNA was added at a constant concentration of 100 nM±5% and PYT at 15 nM. Different concentrations of competitive antibiotic (tobramycin (o-60 μM), gentamicin C (0-100 μM), neomycin B (0-4 μM), or lividomycin A (0-100 μM) or Rev protein (0-6 μM) were mixed with constant concentrations of RNA (100 nM TAR or RRE) and C1PYT (15 nM), in Binding buffer (140 mM NaCl, 5 mM KCl, 1 mM MgCl2, 20 mM HEPES, pH 7.4), 2 ml total volume, for 1-5 min. at 20° C. in a semimicrocell cuvette. The fluorescence was measured on a Perkin-Elmer Model 512 double beam fluorescence spectrophotometer. The excitation wavelength used was 330 nm. The intensities of fluorescence emission at 390 nm were used to calculate dissociation constants. Generally 8 to 12 points were used for calculation.
Competition binding measurements of antibiotics with RNA and PYT were performed at constant concentrations of PYT and RNA by monitoring fluorescence intensity changes as a function of changing concentrations of the antibiotics (a standard fluorescence curve). […]

[4] = molecular target: random selected RNA pool (low stringency tobramycin column); experiment: Fluorescence assay, average binding of the random selected RNA pool; settings: overall selected pool mixture
Description: To determine whether the W13 RNA clone is representative of the average binding capacity of the random selected RNA pool, the average KD values for the random selected pool were measured. […] Therefore, the W13 RNA is representative of the average binding capacity of the random selected pool.
as §2, §3

[5] = molecular target: X1s1 RNA (SEQ ID NO: 3), synthetically derived from the predicted structures; experiment: Fluorescence binding measurements, X1s1 RNA
Description: as §1
*synthetically derived from the predicted structures
as §2, §3

[6] = molecular target: RRE region of HIV RNA; experiment: Fluorescence binding and competitive binding to RRE RNA; settings: competition, 100 nM RNA, 15 nM fluorescent tobramycin, 20° C., pH 7.4; read-out: Dissociation Constant (KD) RRE RNA
Description: as §4
For binding studies, different concentrations of RRE RNA (from 0 to 300 nm) were mixed with a constant concentration (15 nM) PYT in Binding buffer (140 mM NaCl, 1 mM MgCl2, 20 mM HEPES, pH 7.4), 2 ml total volume, for 1-5 min. at 20° C. in a semimicro-cell cuvette. The fluorescence was measured on a Perkin-Elmer Model 512 double beam fluorescence spectrophotometer. The excitation wavelength used was 330 nm. The intensities of fluorescence emission at 390 nm were used to calculate dissociation constants. Generally 8 to 12 points were used for calculation.
as §5
Wild type and mutant RRE RNAs were transcribed in vitro by T7 RNA polymerase using synthetic oligonucleotide templates, as described by Milligan et al. (Meth. Enzymol. (1989) 180: 51-62).
as §3

[7] = K1 - high affinity, read-out: Dissociation Constants K1(TOB)
[8] = K2 - low affinity, read-out: Dissociation Constants K2(TOB)

With `NC[C@H]1O[C@H](O[C@H]2[C@H](O)[C@@H](O[C@H]3O[C@H](CO)[C@@H](O)[C@H](N)[C@H]3O)[C@H](N)C[C@@H]2N)[C@H](N)C[C@@H]1O` [tobramycin] the Kd [1] was 3000 nM, the Kd [2, 7] was 0.003 ± 0.001 µM and the Kd [2, 8] was 15.9 ± 0.7 µM. It also gave a Kd [3] of 19.1 ± 1.1 µM, a Kd [4] of 8.8 ± 0.3 µM and a Kd [5, 7] of 0.012 ± 0.005 µM. It also gave a Kd [5, 8] of 13.2 ± 0.5 µM and a Kd [6] of 2320 ± 280 nM.
